Tested on: rat
Settings: in vivo

Row | Structure (SMILES) | LD50rat
1 | NNCCO.O=[N+]([O-])O [HEHN, 2-hydroxyethyl hydrazinium nitrate] | 325 mg/kg
2 | NN [Hydrazine] | 60 mg/kg

Source: patent US20140190599A1 (priority 2004, published 2014)
